These are literature values, as cited in patent publication US20090263514A1, “Cold and flu tonic” (priority 2008, published 2009).

For this series the following is noted: in humans.

SMILES strings stand for the structures.

For the compound `O=C(/C=C/C=C/c1ccc2c(c1)OCO2)N1CCCCC1` [piperine], the bioavailability of curcumin entry was “enhance bioavailability of curcumin dramatically”.
